What all share (assay type): cell-based
Test [1] has as its system SKBR-3. Description: Tumor cell inhibition experiment (CCK-8), SKBR-3. Conditions: SKBR-3, HER2 3+, 3 days, read-out: IC50 values (nM) of anti-HER2 antibody-drug conjugates to HER2-expressing tumor cells. As to the method: (§1) This example examined the inhibitory activity of the antibody-drug conjugates of the present invention on HER2-positive cells. The tumor cell lines in this example were all purchased from ATCC, USA.
(§2) The experimental steps are as follows:
(§3) The cells were digested, collected by centrifugation, counted, and the cell liquid was diluted to 0.4-2.0×10^5 cells/ml, and 100 μl of said cell suspension was added to each well of a 96-well plate. The cells were cultured overnight in a 37° C. cell culture incubator, and ADC drugs with corresponding concentration was added the next day. The initial concentration of the drug was 1-15 μg/ml, and was diluted in 3-fold equal-gradient with a total of 9 concentration gradients. Finally, a set of zero-concentration cell were set as controls. After addition of drug, the cells were cultured for 3 days, and the drug-containing medium was sucked. 100 μl of 10% CCK-8 solution was added to each well, and incubated at 37° C. for 1-2 h, and then absorbance intensity of each well was detected at 490 nm with a microplate reader. The data was imported into a mapping software, the curve was fitted, and IC50 values were calculated.

The test system of test [2] is NCI-N87. Briefly: Tumor cell inhibition experiment (CCK-8), NCI-N87. The following applies: NCI-N87, HER2 3+, 3 days, read-out: IC50 values (nM) of anti-HER2 antibody-drug conjugates to HER2-expressing tumor cells. As to the method:
as §1, §2, §3

The test system of test [3] is OE-19. Description: Tumor cell inhibition experiment (CCK-8), OE-19. The following applies: OE-19, HER2 3+, 3 days, read-out: IC50 values (nM) of anti-HER2 antibody-drug conjugates to HER2-expressing tumor cells. As to the method:
as §1, §2, §3

Test [4] has as its system BT474. Briefly: Tumor cell inhibition experiment (CCK-8), BT474. Conditions: BT474, HER2 3+, 3 days, read-out: IC50 values (nM) of anti-HER2 antibody-drug conjugates to HER2-expressing tumor cells. As to the method: as §1, §2, §3
Test [5] has as its system HCC1954. Briefly: Tumor cell inhibition experiment (CCK-8), HCC1954. The following applies: HCC1954, HER2 3+, 3 days, read-out: IC50 values (nM) of anti-HER2 antibody-drug conjugates to HER2-expressing tumor cells. As to the method:
as §1, §2, §3

Test [6] deals with MDA453. Briefly: Tumor cell inhibition experiment (CCK-8), MDA453. The following applies: MDA453, HER2 2+, 3 days, read-out: IC50 values (nM) of anti-HER2 antibody-drug conjugates to HER2-expressing tumor cells. As to the method:
as §1, §2, §3

Data on one substance can be found in US12318455B2, “Anti-HER2 antibody-drug conjugate and application thereof” (HANGZHOU ADCORIS BIOPHARMA CO., LTD., priority 2016, dated 2025).

By IC50 is commonly meant the concentration needed to halve the response being measured. For the substance T-DM1, the IC50 amounted to 0.114 nM in test [1]; 0.548 nM in test [2]; 0.099 nM in test [3]; 0.622 nM in test [4]; 0.159 nM in test [5]; 0.259 nM in test [6].
